Laboratory results taken from PubChem BioAssay AID588653 (The Scripps Research Institute Molecular Screening Center, 2011).

Biological target: Epidermal growth factor receptor (Homo sapiens) (UniProt P00533)
Assay: change in phospho-EGFR protein amount, up or down, late-stage follow-up, counter-screen for KLF5 inhibitor project, HT29 cells, chemiluminescent western blot, powder samples (AID 588653)
Conditions: p-EGFR western blot, 24 h, at 10 µM

Epidermal growth factor receptor (Homo sapiens), sequence (P00533 whole entry, looked up): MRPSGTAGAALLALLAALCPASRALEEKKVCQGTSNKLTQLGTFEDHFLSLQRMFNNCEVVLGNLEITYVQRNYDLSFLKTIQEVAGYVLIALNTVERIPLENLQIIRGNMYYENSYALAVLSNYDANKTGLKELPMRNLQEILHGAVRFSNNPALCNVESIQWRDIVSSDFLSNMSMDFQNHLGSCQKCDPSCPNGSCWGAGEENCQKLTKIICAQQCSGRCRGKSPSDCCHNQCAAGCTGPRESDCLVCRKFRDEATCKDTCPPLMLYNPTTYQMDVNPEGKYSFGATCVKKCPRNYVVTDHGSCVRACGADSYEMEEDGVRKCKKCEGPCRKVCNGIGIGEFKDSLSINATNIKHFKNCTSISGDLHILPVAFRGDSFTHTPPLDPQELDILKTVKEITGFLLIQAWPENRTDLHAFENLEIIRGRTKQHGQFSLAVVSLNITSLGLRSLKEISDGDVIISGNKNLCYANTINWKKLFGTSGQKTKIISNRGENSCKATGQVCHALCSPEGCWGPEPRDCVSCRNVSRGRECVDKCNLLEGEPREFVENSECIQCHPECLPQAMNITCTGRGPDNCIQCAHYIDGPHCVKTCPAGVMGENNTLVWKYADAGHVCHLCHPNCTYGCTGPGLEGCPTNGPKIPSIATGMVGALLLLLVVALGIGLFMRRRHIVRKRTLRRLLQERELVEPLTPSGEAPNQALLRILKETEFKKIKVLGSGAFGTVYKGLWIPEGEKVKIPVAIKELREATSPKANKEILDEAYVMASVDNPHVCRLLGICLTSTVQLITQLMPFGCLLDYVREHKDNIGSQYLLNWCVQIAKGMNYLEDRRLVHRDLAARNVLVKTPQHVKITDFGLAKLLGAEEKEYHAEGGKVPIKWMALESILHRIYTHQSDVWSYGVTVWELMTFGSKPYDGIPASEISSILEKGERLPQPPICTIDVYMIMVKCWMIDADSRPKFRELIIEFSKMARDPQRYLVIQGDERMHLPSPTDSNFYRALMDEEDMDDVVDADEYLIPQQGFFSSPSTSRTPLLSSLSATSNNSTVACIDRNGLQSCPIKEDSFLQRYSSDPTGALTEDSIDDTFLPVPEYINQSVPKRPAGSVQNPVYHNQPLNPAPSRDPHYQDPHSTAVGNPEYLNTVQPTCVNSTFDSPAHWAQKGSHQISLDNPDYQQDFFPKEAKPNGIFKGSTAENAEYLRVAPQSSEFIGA

| SMILES | inhibition [%] |
| --- | --- |
| CN(C(=O)COC(=O)/C=C/c1cccc([N+](=O)[O-])c1)C1CCS(=O)(=O)C1 (stereo not drawn) | -47.5 |
| CN(C(=O)CNC(=O)/C=C/c1cccc(Cl)c1)C1CCS(=O)(=O)C1 (stereo not drawn) | -130 |
| CN(C(=O)CNC(=O)/C=C/c1cccc(Cl)c1)C1CCS(=O)(=O)CC1 | -116 |
